Like-named read-outs stand apart in the source and are kept apart here.
How the values were obtained:
[1] = scale 1 to 100, glucose rated 100, cited from earlier work
healthy people = assay: Glycemic Index (GI) test, two-hour blood glucose response vs glucose reference; assay type: in vivo, humans; settings: when added to sugar; conclusion of Example 11
Procedure: This study was conducted by the Human Nutrition Unit at the University of Sydney using internationally recognised GI methodology, which has been validated by results obtained from small experimental studies and large multi-centre research trials. The experimental procedures used in this study were in accordance with international standards for conducting ethical research with humans and were approved by the Human Research Ethics Committee of Sydney University.
Using standard methodology to determine a food's GI value, a portion of the food containing between 10 and 50 grams of available carbohydrate is fed to 10 healthy people the morning after they have fasted for 10-12 hours overnight. A fasting blood sample is first obtained from each person and then the food is consumed, after which additional blood samples are obtained at regular intervals during the next two hours. In this way, it's possible to measure the total increase in blood sugar produced by that food over a two-hour period. […]
For each subject, the concentration of glucose in each of the eight whole blood samples collected from them during each test session was analysed in duplicate using a HemoCue® B-glucose photometric analyser employing a glucose dehydrogenase/mutarotase enzymatic assay (HemoCue AB, Ängelholm, Sweden). […] Therefore, each blood sample was analysed immediately after it was collected. […]

Compound	glycemic index (GI) [1]	glycemic index (GI) ([1]; listed as table sugar)	effect on the GI of sugar (healthy people)
OC[C@H]1O[C@@](CO)(O[C@H]2O[C@H](CO)[C@@H](O)[C@H](O)[C@H]2O)[C@@H](O)[C@@H]1O [sucrose]	about 65	65	
O=C(CO)[C@@H](O)[C@H](O)[C@H](O)CO [fructose]	23		
O=C[C@H](O)[C@@H](O)[C@@H](O)[C@H](O)CO [galactose]			reduces the GI to a low level

Source: US9161562B2, “Natural sweetener” (Horizon Science Pty Ltd, priority 2004, dated 2015)
